ChEMBL document CHEMBL1201862, “PubChem BioAssay data set” (2004)
Several values for one entry are separate records, joined by “and”; a condition that tells them apart may be missing. Equal values may be shown once.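 Grown in 96-well plates, cells were treated for 48 hours with each compound at five concentrations. Insufficient inhibition: endpoint recorded as highest concentration tested. GI50 is the concentration that inhibits growth by half.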 Activity calls are given as the source filed them. Cut-off read from the data, not from the text of the source: active = GI50 up to about 1.1 µM and inactive = higher.

How the values were obtained:
Experiment in all cases: NCI-60 cell line screen, 48 h
SF-295 = tested on: SF-295
HT-29 = tested on: HT-29
NCI/ADR-RES = tested on: NCI/ADR-RES
IGROV-1 = tested on: IGROV-1
T47D = tested on: T47D
MCF7 = tested on: MCF7
NCI-H23 = tested on: NCI-H23
HL-60 = tested on: HL-60
CCRF-CEM = tested on: CCRF-CEM
MDA-MB-435 = tested on: MDA-MB-435
TK-10 = tested on: TK-10
K562 = tested on: K562
SK-MEL-5 = tested on: SK-MEL-5
EKVX = tested on: EKVX
MOLT-4 = tested on: MOLT-4
SR = tested on: SR
PC-3 = tested on: PC-3
UACC-62 = tested on: UACC-62
HCT-116 = tested on: HCT-116
HCT-15 = tested on: HCT-15
A549 = tested on: A549
SW-620 = tested on: SW-620
SF-268 = tested on: SF-268
KM12 = tested on: KM12
OVCAR-5 = tested on: OVCAR-5
OVCAR-3 = tested on: OVCAR-3
A498 = tested on: A498
786-0 = tested on: 786-0
NCI-H226 = tested on: NCI-H226
DU-145 = tested on: DU-145
CAKI-1 = tested on: CAKI-1
HOP-62 = tested on: HOP-62
SNB-19 = tested on: SNB-19
MDA-MB-231 = tested on: MDA-MB-231
MDA-N = tested on: MDA-N
SNB-75 = tested on: SNB-75
SF-539 = tested on: SF-539
HOP-92 = tested on: HOP-92
UO-31 = tested on: UO-31
RXF 393 = tested on: RXF 393
ACHN = tested on: ACHN
Malme-3M = tested on: Malme-3M
U-251 = tested on: U-251
OVCAR-8 = tested on: OVCAR-8
UACC-257 = tested on: UACC-257
SK-MEL-2 = tested on: SK-MEL-2
COLO 205 = tested on: COLO 205
SK-MEL-28 = tested on: SK-MEL-28
SN12C = tested on: SN12C
NCI-H522 = tested on: NCI-H522
SK-OV-3 = tested on: SK-OV-3
M14 = tested on: M14
LOX IMVI = tested on: LOX IMVI
OVCAR-4 = tested on: OVCAR-4
HCC 2998 = tested on: HCC 2998
Hs-578T = tested on: Hs-578T
RPMI-8226 = tested on: RPMI-8226

Measured: GI50

CC1(C)C2CC(=O)C1(C)C(OCc1ccccc1)C2Br (configuration not stated)
inactive: SF-295 25.2 µM and 50.4 µM | HT-29 15.5 µM and 22.6 µM | NCI/ADR-RES 20.7 µM and 36.7 µM | IGROV-1 74.8 µM and 43.8 µM | T47D 46.2 µM and 28.2 µM | MCF7 36 µM and 62.8 µM | NCI-H23 40.7 µM and 27.9 µM | HL-60 22.5 µM and 23.2 µM | CCRF-CEM 15.8 µM and 20.5 µM | MDA-MB-435 29.9 µM and 25.6 µM | TK-10 53.6 µM | K562 27.1 µM and 23.2 µM | SK-MEL-5 14.6 µM and 20.7 µM | EKVX 50 µM and 57.9 µM | MOLT-4 17.7 µM and 17.3 µM | SR 21.4 µM and 25.1 µM | PC-3 18 µM and 28.6 µM | UACC-62 34.9 µM and 58.3 µM | HCT-116 19.3 µM and 38.2 µM | A549 37.8 µM and 59.3 µM | SW-620 19.3 µM and 32.7 µM | SF-268 56.6 µM
17.3 µM and 34 µM: HCT-15

C=CCn1c2ccccc2[n+]2cc([N+](=O)[O-])ccc12
inactive: SF-295 > 100 µM | KM12 40.1 µM | HT-29 18.3 µM | NCI/ADR-RES 57 µM | OVCAR-5 74 µM | IGROV-1 21.3 µM | OVCAR-3 24.5 µM | A498 19.5 µM | 786-0 46.2 µM | T47D 32.3 µM | NCI-H226 25.9 µM | MCF7 26.3 µM | DU-145 50.9 µM | CAKI-1 32.1 µM | NCI-H23 20 µM | HOP-62 54.3 µM | HL-60 17.3 µM | SNB-19 66.2 µM | MDA-MB-231 34.7 µM | CCRF-CEM 20.9 µM | MDA-N 23.9 µM | MDA-MB-435 26.4 µM | SNB-75 33.1 µM | SF-539 32.7 µM | HOP-92 18.9 µM | TK-10 61.7 µM | K562 13 µM | UO-31 48.4 µM | SK-MEL-5 22 µM | EKVX 37 µM | RXF 393 67.3 µM | ACHN 33.1 µM | Malme-3M 15.8 µM | MOLT-4 28.2 µM | U-251 31.9 µM | OVCAR-8 27 µM | UACC-257 21.3 µM | PC-3 48.8 µM | SK-MEL-2 27.2 µM | COLO 205 12.3 µM | UACC-62 28.6 µM | SK-MEL-28 34.2 µM | SN12C 27.3 µM | NCI-H522 16 µM | SK-OV-3 47.2 µM | HCT-116 27.2 µM | M14 36.3 µM | A549 > 100 µM | SW-620 30.8 µM | LOX IMVI 30.5 µM | OVCAR-4 77.4 µM | HCC 2998 54.8 µM
34.5 µM: HCT-15

Cc1cc(-c2nc3ccc(O)cc3s2)ccc1N
inactive: CAKI-1 34.8 µM

Cc1cc(NCCCCCCNc2cc(C)nc3ccc(N)cc23)c2cc(N)ccc2n1
inactive: SNB-19 37 µM | U-251 42.3 µM

CCOC(=O)C(Cl)(NC(=O)NC(Cl)(C(=O)OCC)C(F)(F)F)C(F)(F)F (configuration not stated)
inactive: Hs-578T > 100 µM | HT-29 > 100 µM | NCI/ADR-RES > 100 µM | OVCAR-5 > 100 µM | A498 > 100 µM | 786-0 > 100 µM | NCI-H23 > 100 µM | HL-60 > 100 µM | SNB-19 > 100 µM | RPMI-8226 > 100 µM | CCRF-CEM > 100 µM | MDA-N > 100 µM | SNB-75 > 100 µM | SF-539 > 100 µM | K562 > 100 µM | UO-31 > 100 µM | RXF 393 > 100 µM | ACHN > 100 µM | MOLT-4 > 100 µM | U-251 > 100 µM | SR > 100 µM | UACC-257 > 100 µM | PC-3 > 100 µM | SK-MEL-2 > 100 µM | COLO 205 > 100 µM | SK-MEL-28 > 100 µM | SN12C > 100 µM | SK-OV-3 > 100 µM | HCT-116 > 100 µM | LOX IMVI > 100 µM | HCC 2998 > 100 µM | SF-268 > 100 µM
> 100 µM: HCT-15
